Experimental findings from US20250215030A1, “STAT MODULATORS AND USES THEREOF” (Recludix Pharma, Inc., priority 2022, published 2025) are described below.

Read-outs that look alike come from different tables or passages of the source.

One experiment has as its target T1, pSTAT6 (pY641-STAT6) (Homo sapiens, UniProt P42226).
T1 construct: host or cells: cryopreserved PBMC
T1 sequence (P42226 1-847): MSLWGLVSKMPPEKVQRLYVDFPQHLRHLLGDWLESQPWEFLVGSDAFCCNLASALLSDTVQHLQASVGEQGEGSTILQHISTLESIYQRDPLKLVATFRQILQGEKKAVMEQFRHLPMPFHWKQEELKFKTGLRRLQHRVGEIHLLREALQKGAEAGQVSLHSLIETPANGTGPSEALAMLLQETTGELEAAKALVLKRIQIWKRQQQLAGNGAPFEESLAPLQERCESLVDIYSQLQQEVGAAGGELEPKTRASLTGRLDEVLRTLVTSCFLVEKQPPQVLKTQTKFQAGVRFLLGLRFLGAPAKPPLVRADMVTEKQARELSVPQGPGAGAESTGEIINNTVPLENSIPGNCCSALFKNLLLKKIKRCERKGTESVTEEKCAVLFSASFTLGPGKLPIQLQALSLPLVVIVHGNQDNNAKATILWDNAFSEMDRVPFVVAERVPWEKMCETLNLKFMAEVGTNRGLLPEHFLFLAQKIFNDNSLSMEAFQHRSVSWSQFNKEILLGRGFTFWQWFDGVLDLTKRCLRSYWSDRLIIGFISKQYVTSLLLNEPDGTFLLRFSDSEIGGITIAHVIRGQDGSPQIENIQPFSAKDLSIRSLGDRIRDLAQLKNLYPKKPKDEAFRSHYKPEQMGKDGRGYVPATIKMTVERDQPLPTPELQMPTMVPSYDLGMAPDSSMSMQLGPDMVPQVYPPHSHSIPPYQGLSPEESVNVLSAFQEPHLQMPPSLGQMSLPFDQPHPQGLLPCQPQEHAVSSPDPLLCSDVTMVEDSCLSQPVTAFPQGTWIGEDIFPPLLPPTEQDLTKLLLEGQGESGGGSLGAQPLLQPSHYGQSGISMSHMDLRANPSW
In words: MSD-pSTAT-PBMC Assay (pSTAT6, IL-4 stimulated). The format is cell-based. The conditions noted are these: compound 3 hrs, then 1 ng/mL IL-4 for 10 min. The source says: Cryopreserved Peripheral Blood Mononuclear Cells (PBMC) are from AllCells. Recombinant Human IL-4 and IL-6 are from Peprotech. Mouse monoclonal anti-STAT3 antibody, rabbit monoclonal anti-pY705-STAT3 antibody, rabbit monoclonal Anti-pY641-STAT6 antibody, and lysis buffer are from Cell Signaling Technology (CST). Mouse monoclonal anti-STAT6 antibody is from BioLegend. Assay plates, blocker, and anti-rabbit secondary antibody are from Meso Scale Discovery (MSD).
Cryopreserved PBMCs were thawed out and allowed to recover overnight in IMDM+10% heat-inactivated FBS prior to plating 50,000 (STAT3) or 25,000 (STAT6) cells per well in 96-well U-bottom tissue culture plates. Cells were treated with compound for 3 hrs, then stimulated with 10 ng/mL IL-6 (STAT3) or 1 ng/mL IL-4 (STAT6) for 10 min. Cells were then spun down and washed with ice-cold PBS prior to lysing the cell pellet with 1× lysis buffer (CST) with 1× HALT protease and phosphatase inhibitor cocktail (Thermo). Lysates were transferred to and incubated overnight at 4° C. with shaking in QuickPlex 96-well high bind assay plates (MSD) pre-coated overnight with 30 μL per well of 0.6 μg/mL mouse monoclonal anti-STAT3 antibody (STAT3) or 2 μg/mL mouse monoclonal anti-STAT6 antibody (STAT6) in 1×PBS, and pre-blocked for 1 hour with 3% Blocker-A (MSD). Captured protein in the assay plates were then washed and probed with 25 μL per well of 0.25 μg/ml rabbit monoclonal anti-pY705-STAT3 antibody (STAT3) or 0.18 μg/ml rabbit monoclonal Anti-pY641-STAT6 antibody (STAT6) in 1% Blocker-A for 1 hour at room temperature with shaking, then washed and probed with 25 ul per well of 1 ug/mi Sulfo-TAG Labeled Goat Anti-Rabbit Antibody (MSD) in 1% Blocker-A for 1 hour at room temperature with shaking. Assay plates were then washed and 150 μL of 1× Read Buffer-T (MSD) was added to each well prior to reading on an SQ120 MSD Plate Reader. Assay signal from each sample was subtracted by the signal from unstimulated control wells and normalized to DMSO control wells. IC50 values were calculated using Graph Pad Prism Dose-Response Nonlinear Regression with variable slope. For both pSTAT3 and pSTAT6 A=≤100 nM; B=>100-1000 nM; C=>1000-3000 nM; and D=>3 μM.

The next experiment concerns the target T2, pSTAT3 (pY705-STAT3) (Homo sapiens, UniProt P40763).
T2 construct: host or cells: cryopreserved PBMC
In words: MSD-pSTAT-PBMC Assay (pSTAT3, IL-6 stimulated). The format is cell-based. The method, boiled down: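 Phospho-STAT levels captured on anti-STAT3 or anti-STAT6 plates and detected with anti-pY705 or anti-pY641 antibodies (MSD read-out). Cryopreserved human PBMCs received compound for 3 h before a 10 min pulse of IL-6 (10 ng/mL, STAT3) or IL-4 (1 ng/mL, STAT6). IC50 fitted after unstimulated-background subtraction and DMSO normalization.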

Setting [1] is: PBMC, compound 3 hrs, then 10 ng/mL IL-6 for 10 min, MSD pY705-STAT3, read-out: pSTAT3.

T2 sequence (P40763 whole entry): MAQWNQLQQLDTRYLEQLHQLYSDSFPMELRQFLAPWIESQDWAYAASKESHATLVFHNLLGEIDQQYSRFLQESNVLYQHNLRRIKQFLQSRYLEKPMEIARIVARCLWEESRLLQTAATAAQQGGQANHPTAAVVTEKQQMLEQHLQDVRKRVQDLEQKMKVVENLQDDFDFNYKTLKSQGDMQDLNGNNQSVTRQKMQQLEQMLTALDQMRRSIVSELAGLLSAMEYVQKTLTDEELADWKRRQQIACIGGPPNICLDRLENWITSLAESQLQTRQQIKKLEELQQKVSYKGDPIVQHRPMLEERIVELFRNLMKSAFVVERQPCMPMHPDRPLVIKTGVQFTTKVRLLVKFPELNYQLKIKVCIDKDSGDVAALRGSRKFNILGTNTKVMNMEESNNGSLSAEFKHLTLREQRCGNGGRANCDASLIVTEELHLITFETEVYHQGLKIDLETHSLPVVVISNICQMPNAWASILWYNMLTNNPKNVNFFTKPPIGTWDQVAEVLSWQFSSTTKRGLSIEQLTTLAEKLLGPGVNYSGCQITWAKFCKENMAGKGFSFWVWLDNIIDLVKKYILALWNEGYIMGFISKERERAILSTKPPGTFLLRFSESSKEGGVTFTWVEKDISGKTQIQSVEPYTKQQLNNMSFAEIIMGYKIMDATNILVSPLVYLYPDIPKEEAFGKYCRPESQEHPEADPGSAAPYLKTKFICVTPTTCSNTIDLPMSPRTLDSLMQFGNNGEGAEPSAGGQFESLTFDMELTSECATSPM

Take `CC(C)(C)C(=O)OCOP(=O)(OCOC(=O)C(C)(C)C)C(F)(F)c1ccc2sc(C(=O)N[C@H]3C[C@@H]4C[C@@H]4C[C@H]4CC[C@@H](C(=O)N5C[C@@H](C#N)[C@H](c6ccccc6)C5)N4C3=O)cc2c1` (relative stereo) [Compound 139, ((((2-(((3S,6S,7aR, 8aS,9aR)-3-((rel-trans)-3-cyano-4-phenyl-pyrrolidine-1-carbonyl)-5-oxodecahydro-1H-cyclopropa [d]pyrrolo[1,2-a]azocin-6-yl)carbamoyl)benzo[b]thiophen-5-yl)difluoro-methyl)phosphoryl)bis(oxy)) bis(methylene) bis(2,2-dimethylpro-panoate)]: the IC50 on pSTAT6 (pY641-STAT6) and on pSTAT3 (pY705-STAT3) (setting [1]) was less than 100 nM in each case.
For the molecule `CC(C)(C)C(=O)OCOP(=O)(OCOC(=O)C(C)(C)C)[C@@H](F)c1ccc2sc(C(=O)N[C@H]3C[C@@H]4C[C@@H]4C[C@H]4CC[C@@H](C(=O)N5CC(C(=O)N6CCOCC6)C5)N4C3=O)cc2c1` (single isomer, unassigned) [Compound 182, ((((S) or (R)-fluoro(2-(((3S,6S,7aS, 8aR,9aR)-3-(3-(morpholine-4-carbonyl)azetidine-1-carbonyl)-5-oxodecahydro-1H-cyclopropa[d]pyrrolo[1,2-a]azocin-6-yl)carbamoyl)benzo[b]thiophen-5-yl)methyl)phosphoryl)bis(oxy)) bis(methylene) bis(2,2-dimethyl-propanoate)], the IC50 at pSTAT6 (pY641-STAT6) is more than 3000 nM; on pSTAT3 (pY705-STAT3) (setting [1]), less than 100 nM.
Turning to `CC(C)(C)C(=O)OCOP(=O)(OCOC(=O)C(C)(C)C)[C@@H](F)c1ccc2sc(C(=O)N[C@H]3C[C@@H]4C[C@@H]4C[C@H]4CC[C@@H](C(=O)N5CC(C(=O)N6CCOCC6)C5)N4C3=O)cc2c1` (single isomer, unassigned) [Compound 183, ((((R) or (S)-fluoro(2-(((3S,6S,7aS, 8aR,9aR)-3-(3-(morpholine-4-carbonyl)azetidine-1-carbonyl)-5-oxodecahydro-1H-cyclopropa[d]pyrrolo[1,2-a]azocin-6-yl)carbamoyl)benzo[b]thiophen-5-yl)methyl)phosphoryl)bis(oxy)) bis(methylene) bis(2,2-dimethyl-propanoate)], the IC50 on pSTAT6 (pY641-STAT6) is 100 to 1000 nM; at pSTAT3 (pY705-STAT3) (setting [1]) it was less than 100 nM.
The matching figures for `CC(C)(CO)C(=O)SCCOP(=O)(OCCSC(=O)C(C)(C)CO)C(F)(F)c1ccc2sc(C(=O)N[C@H]3C[C@@H]4C[C@@H]4C[C@H]4CC[C@@H](C(=O)N5CC(C(=O)N6CCOCC6)C5)N4C3=O)cc2c1` [Compound 131, S,S′-((((difluoro(2-(((3S,6S,7aS, 8aR,9aR)-3-(3-(morpholine-4-carbonyl)azetidine-1-carbonyl)-5-oxodecahydro-1H-cyclopropa[d]pyrrolo[1,2-a]azocin-6-yl)carbamoyl)benzo[b]thiophen-5-yl)methyl)phosphoryl)bis(oxy))bis(ethane-2,1-diyl)) bis(3-hydroxy-2,2-dimethyl-propane-thioate)]: more than 3000 nM and 100 to 1000 nM.
For `CC(C)(CO)C(=O)SCCOP(=O)(Cc1ccc2sc(C(=O)N[C@H]3C[C@@H]4C[C@@H]4C[C@H]4CC[C@@H](C(=O)N5CC(C(=O)N6CCOCC6)C5)N4C3=O)cc2c1)OCCSC(=O)C(C)(C)CO` [Compound 133, S,S′-(((((2-(((3S,6S,7aS, 8aR,9aR)-3-(3-(morpholine-4-carbonyl)azetidine-1-carbonyl)-5-oxodecahydro-1H-cyclopropa[d]pyrrolo[1,2-a]azocin-6-yl)carbamoyl)benzo[b]thiophen-5-yl)methyl)phosphoryl)bis(oxy))bis(ethane-2,1-diyl)) bis(3-hydroxy-2,2-dimethyl-propane-thioate], in that order: more than 3000 nM and more than 3000 nM.
For `O=C(OCOP(=O)(Cc1ccc2sc(C(=O)N[C@H]3C[C@H]4C[C@H]4C[C@H]4CC[C@@H](C(=O)N5CC(c6cccnc6)C5)N4C3=O)cc2c1)OCOC(=O)OC1CCOCC1)OC1CCOCC1` [Compound 135, ((((2-(((3S,6S,7aR, 8aS,9aR)-5-oxo-3-(3-(pyridin-3-yl)azetidine-1-carbonyl)decahydro-1H-cyclopropa[d]pyrrolo[1,2-a]azocin-6-yl)carbamoyl)benzo[b]thiophen-5-yl)methyl)phosphoryl)bis(oxy)) bis(methylene) bis(tetrahydro-2H-pyran-4-yl) bis(carbonate)], in that order: more than 3000 nM and less than 100 nM.
As for `CCCOC(=O)[C@H](C)NP(=O)(Oc1ccccc1)C(F)c1ccc2sc(C(=O)N[C@H]3C[C@@H]4C[C@@H]4C[C@H]4CC[C@@H](C(=O)N5CC(c6cnccc6OCC)C5)N4C3=O)cc2c1` (stereo partly drawn) [Compound 423, propyl(((S)-(2-(((3S,6S,7aS,8aR,9aR)-3-(3-(4-ethoxypyridin-3-yl)azetidine-1-carbonyl)-5-oxodecahydro-1H-cyclopropa[d]pyrrolo[1,2-a]azocin-6-yl)carbamoyl)benzo[b]thiophen-5-yl)fluoromethyl)(phenoxy)phosphoryl)-L-alaninate], on pSTAT3 (pY705-STAT3), the IC50 was less than 100 nM.
The molecule `CCCOC(=O)[C@H](C)NP(=O)(Oc1ccccc1)C(F)c1ccc2sc(C(=O)N[C@H]3C[C@@H]4C[C@@H]4C[C@H]4CC[C@@H](C(=O)N5CC(c6cnccc6N6CCN(C)CC6)C5)N4C3=O)cc2c1` (stereo partly drawn) [Compound 424, propyl(((R)-fluoro(2-(((3S,6S,7aS,8aR,9aR)-3-(3-(4-(4-methylpiperazin-1-yl)pyridin-3-yl)azetidine-1-carbonyl)-5-oxodecahydro-1H-cyclopropa[d]pyrrolo[1,2-a]azocin-6-yl)carbamoyl)benzo[b]thiophen-5-yl)methyl)(phenoxy)phosphoryl)-L-alaninate] gave an IC50 against pSTAT3 (pY705-STAT3) of 100 to 1000 nM.
“propyl(((2-(((3S,6S,7aS,8aR,9aR)-3-((1R,5R)-2-acetyl-2,6-diazabicyclo[3.2.0]heptane-6-carbonyl)-5-oxodecahydro-1H-cyclopropa[d]pyrrolo[1,2-a]azocin-6-yl)carbamoyl)benzo[b]thiophen-5-yl)fluoromethyl)(phenoxy)phosphoryl)-L-alaninate [Compound 292]”: at pSTAT3 (pY705-STAT3) (setting [1]), the IC50 is less than 100 nM.
Same read-out and setting: as for “propyl(((2-(((3S,6S,7aS,8aR,9aR)-8a-methyl-5-oxo-3-(3-(pyridin-3-yl)azetidine-1-carbonyl)decahydro-1H-cyclopropa[d]pyrrolo[1,2-a]azocin-6-yl)carbamoyl)benzo[b]thiophen-5-yl)methyl)(phenoxy)phosphoryl)-L-alaninate [Compound 233]”, the figure is less than 100 nM; as for “propyl(((2-(((3S,6S,8aR,9aS,9bR)-8a-methyl-5-oxo-3-(3-(pyridin-3-yl)azetidine-1-carbonyl)decahydro-1H-cyclopropa[c]pyrrolo[1,2-a]azocin-6-yl)carbamoyl)benzo[b]thiophen-5-yl)methyl)(phenoxy)phosphoryl)-L-alaninate [Compound 232]”, less than 100 nM.
